Legend:
[1] = system: HBV viral load in AD38 cells; assay: Viral load production in AD38 cells, quantitative PCR of the core sequence in supernatant; format: cell-based; conditions: 10 μM compound, 6 days at 37° C., supernatant qPCR, relative to DMSO control; for activity at 10 µM: Hepatitis B virus, 144 h, read-out: AD38 Viral Load (%) (VL with cmpd/VL in DMSO control) at 10 μM
AD38 cells = assay: Viability of AD38 cells (Promega CellTiter-Glo); format: cell-based; conditions: 10 μM compound, 6 days, CellTiter-Glo luminescence normalized to DMSO control (100%)
Procedure, shortened: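 After 6 days of compound exposure at 37° C (compound added as 10× solution in 10% DMSO; 50,000 cells/well, collagen-coated), medium was replaced with tetracycline-free DMEM/F12, 2% FBS, 1% DMSO. CellTiter-Glo luminescence was then recorded and normalized to DMSO-treated wells as 100% viability.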

Row | Compound | activity at 10 µM [1] [%] | AD38 Viability Normalized Result (cmpd/DMSO %) at 10 μM (AD38 cells) [%] | AD38 Viral Load (%) (VL with cmpd/VL in DMSO control) at 10 μM [1]
1 | CN(C)CCOc1ncc(CNC(=O)c2ccc3c(c2)NC(=O)c2ccccc2S3(=O)=O)s1 [compound 1586, N-((2-(2-(dimethylamino)ethoxy)thiazol-5-yl)methyl)-11-oxo-10, 11-dihydrodibenzo [b, f] [1, 4] thiazepine-8-carboxamide 5,5-dioxide] | 27.9 | 83 | 
2 | Cc1c(C(=O)NCc2cnc(C(F)(F)F)s2)ccc2c1NC(=O)c1ccccc1O2 [compound 1941] | 5.2 | 84 | 
3 | COc1ccc(-c2ncc(CNC(=O)c3ccc4c(c3)NC(=O)c3ccccc3S4(=O)=O)s2)cc1C [1804-A, N-((2-(4-methoxy-3-methylphenyl)thiazol-5-yl)methyl)-11-oxo-10, 11-dihydrodibenzo [b, f] [1, 4] thiazepine-8-carboxamide 5,5-dioxide] | 6.6 | 90 | 
4 | Cc1cc2c(cc1C(=O)NCc1cnc(-c3ccc(O)cc3)s1)NC(=O)c1ccccc1S2 [compound 1758] | 3.8 | 15 | 
5 | O=C1Cc2cccc(-c3ncc(CNC(=O)c4ccc5c(c4)NC(=O)c4ccccc4S5(=O)=O)s3)c2N1 [compound 1930] | 23.8 | 91 | 
6 | Cc1c(C(=O)NCc2cnc(-c3ccccn3)s2)ccc2c1NC(=O)c1ccccc1S2(=O)=O [compound 11077] | 0.9 | 90 | 
7 | O=C(NCc1cnc(N2C[C@H](O)CC[C@@H](O)C2)s1)c1ccc2c(c1)NC(=O)c1ccccc1S2(=O)=O [compound 1972] | 23.5 | 100 | 
8 | O=C(NCc1cnc(-c2ccc(O[C@H]3CCNC3)cc2)s1)c1ccc2c(c1)NC(=O)c1ccccc1S2(=O)=O.O=C(O)C(F)(F)F [compound 11028, (S)-11-oxo-N-((2-(4-(pyrrolidin-3-yloxy)phenyl)thiazol-5-yl)methyl)-10, 11-dihydrodibenzo [b, f] [1, 4] thiazepine-8-carboxamide 5,5-dioxide TFA salt] | 5.2 | 92 | 
9 | O=C(NCc1cnc(-c2ccc(SCCCO)cc2)s1)c1ccc2c(c1)NC(=O)c1ccccc1S2(=O)=O [11063-A, N-((2-(4-((3-hydroxypropyl)thio)phenyl)thiazol-5-yl)methyl)-11-oxo-10, 11-dihydrodibenzo [b, f] [1, 4] thiazepine-8-carboxamide 5,5-dioxide] | 0.4 | 104 | 
10 | Cl.O=C(NCc1cnc(-c2ccc(OC[C@H]3CCCN3)cc2)s1)c1ccc2c(c1)NC(=O)c1ccccc1S2(=O)=O [compound 11104, (R)-11-oxo-N-((2-(4-(pyrrolidin-2-ylmethoxy)phenyl)thiazol-5-yl)methyl)-10, 11-dihydrodibenzo [b, f] [1, 4] thiazepine-8-carboxamide 5,5-dioxide hydrochloride] | 9.4 | 97 | 
11 | O=C1Nc2c(ccc(C(=O)NCc3cnc(C(F)(F)F)s3)c2Cl)S(=O)(=O)c2ccccc21 [compound 11082] | 1.2 | 95 | 
12 | CC(C)CN1c2ccc(C(=O)NCc3cnc(-c4ccc(C#N)cc4F)s3)cc2NC(=O)c2ccccc21 [compound 11044] | 5.1 | 124 | 
13 | O=C(NCc1cnc(-c2ccc(O)cc2)s1)c1ccc2c(c1)NC(=O)c1c(F)cccc1S2 [compound 1752] | 29.8 | 98 | 
14 | CC(C)(C)OC(=O)NC1CCN(Cc2ncc(CNC(=O)c3ccc4c(c3)NC(=O)c3ccccc3S4(=O)=O)s2)CC1 [1885-A] | 4.5 | 107 | 
15 | CN(C)CCOc1ncc(CN(C)C(=O)c2ccc3c(c2)NC(=O)c2ccccc2O3)s1 [compound 1686, N-((2-(2-(dimethylamino)ethoxy)thiazol-5-yl)methyl)-N-methyl-11-oxo-10, 11-dihydrodibenzo [b, f] [1, 4] oxazepine-8-carboxamide] | 58.4 | 102 | 
16 | COC(=O)[C@@H]1CCCN1CCCOc1ccc(-c2ncc(CNC(=O)c3ccc4c(c3)NC(=O)c3ccccc3S4(=O)=O)s2)cc1 [11106-A] | 3.6 | 90 | 
17 | N#Cc1ccnc(-c2ncc(CNC(=O)c3ccc4c(c3)NC(=O)c3ccccc3S4(=O)=O)s2)c1 [compound 11051] | 1.2 | 103 | 

Row | Compound | activity at 10 µM [1] [%] | AD38 Viability Normalized Result (cmpd/DMSO %) at 10 μM (AD38 cells) [%] | AD38 Viral Load (%) (VL with cmpd/VL in DMSO control) at 10 μM [1]
18 | O=C(NCc1cnc(-c2ccc3[nH]cnc3c2)s1)c1ccc2c(c1)NC(=O)c1ccccc1S2(=O)=O [compound 1637] | 2.3 | 101 | 
19 | COC(=O)C1CCN(CCCOc2ccc(-c3ncc(CNC(=O)c4ccc5c(c4)NC(=O)c4ccccc4S5(=O)=O)s3)cc2)C1 (stereo not drawn) [11107-A, methyl 1-(3-(4-(5-((5,5-dioxido-11-oxo-10, 11-dihydrodibenzo [b, f] [1, 4]thiazepine-8-carboxamido)methyl)thiazol-2-yl)phenoxy)propyl) pyrrolidine-3-carboxylate] |  | 100 | 7.7
20 | O=C(NCc1cnc(-c2cc(F)c(O)c(F)c2)s1)c1ccc2c(c1)NC(=O)c1ccccc1O2 [compound 1701] | 2.1 | 94 | 
21 | O=C(NCc1cnc(-c2ccc(O)nc2)s1)c1ccc2c(c1)NC(=O)c1ccccc1S2(=O)=O [compound 1669, N-((2-(6-hydroxypyridin-3-yl)thiazol-5-yl)methyl)-11-oxo-10, 11-dihydrodibenzo [b, f] [1, 4] thiazepine-8-carboxamide 5,5-dioxide] | 13.1 | 104 | 
22 | Cc1cc2c(cc1C(=O)NCc1cnc(-c3ccc(C#N)cc3)s1)NC(=O)c1ccccc1S2(=O)=O [compound 1911] | 0.4 | 111 | 
23 | CN(C)C1CCN(c2ncc(CNC(=O)c3ccc4c(c3)NC(=O)c3ccccc3S4(=O)=O)s2)CC1 [compound 1636] | 76.9 | 95 | 
24 | O=C(NCc1cnc(-c2ccc(OCCCNCC(F)(F)F)cc2)s1)c1ccc2c(c1)NC(=O)c1ccccc1S2(=O)=O [compound 11102] | 0.5 | 93 | 
25 | CN(C)c1ccc(-c2ncc(CNC(=O)c3ccc4c(c3)NC(=O)c3ccccc3O4)s2)cc1 [compound 1697] | 5.5 | 90 | 
26 | O=C(NCc1cnc(-c2cnc(O)nc2)s1)c1ccc2c(c1)NC(=O)c1ccccc1O2 [compound 1709, N-((2-(2-hydroxypyrimidin-5-yl)thiazol-5-yl)methyl)-11-oxo-10, 11-dihydrodibenzo [b, f] [1, 4] oxazepine-8-carboxamide] | 51.1 | 94 | 
27 | CCN(CC)CCCSc1ccc(-c2ncc(CNC(=O)c3ccc4c(c3)NC(=O)c3ccccc3S4(=O)=O)s2)cc1 [compound 11063, N-((2-(4-((3-(diethylamino)propyl)thio)phenyl)thiazol-5-yl)methyl)-11-oxo-10, 11-dihydrodibenzo [b, f] [1, 4] thiazepine-8-carboxamide 5,5-dioxide] | 1.2 | 102 | 
28 | Nc1ncc(-c2ncc(CNC(=O)c3ccc4c(c3)NC(=O)c3ccccc3S4(=O)=O)s2)cn1 [compound 1673] | 3.2 | 105 | 
29 | O=C(NCc1cnc(N2CCCCC(O)C2)s1)c1ccc2c(c1)NC(=O)c1ccccc1S2(=O)=O (stereo not drawn) [compound 1908] | 7 | 94 | 
30 | Nc1ccc(-c2ncc(CNC(=O)c3ccc4c(c3)NC(=O)c3ccccc3S4(=O)=O)s2)cn1 [compound 1672] | 0.6 | 101 | 
31 | CC(C)(C)OC(=O)NCCCSc1ccc(-c2ncc(CNC(=O)c3ccc4c(c3)NC(=O)c3ccccc3S4(=O)=O)s2)cc1 [11007-A, tert-butyl (3-((4-(5-((5,5-dioxido-11-oxo-10, 11-dihydrodibenzo [b, f] [1, 4]thiazepine-8-carboxamido)methyl)thiazol-2-yl)phenyl)thio)propyl) carbamate] |  | 75 | 0.9
32 | O=C(NCc1cnc(-c2ccc(C#CCCO)cc2)s1)c1ccc2c(c1)NC(=O)c1ccccc1S2(=O)=O [11002-A, N-((2-(4-(4-hydroxybut-1-yn-1-yl)phenyl)thiazol-5-yl)methyl)-11-oxo-10, 11-dihydrodibenzo [b, f] [1, 4] thiazepine-8-carboxamide 5,5-dioxide] | 1 | 106 | 
33 | O=C(O)CNc1ncc(CNC(=O)c2ccc3c(c2)NC(=O)c2ccccc2S3)s1 [compound 1602, (5-((11-oxo-10, 11-dihydrodibenzo [b, f] [1, 4]thiazepine-8-carboxamido)methyl)thiazol-2-yl) glycine] | 59.8 | 97 | 

— US11814376B2, “Hepatitis b core protein modulators” (Assembly Biosciences, Inc., priority 2015, dated 2023)
